# Experimental data from patent US20220265772A1, “USES OF DAN FAMILY BMP ANTAGONISTS FOR INHIBITING OCULAR NEOVASCULARIZATION AND TREATING OCULAR CONDITIONS” (9636137 Canada Inc., priority 2019, published 2022).
# B1: Wnt1: Wnt1 injected into mouse retinas, alone or with DAND5, at increasing molar ratios (protein, UniProt P04426 28-370, looked up)
# Proto-oncogene Wnt-1: ANSSGRWWGIVNIASSTNLLTDSKSLQLVLEPSLQLLSRKQRRLIRQNPGILHSVSGGLQSAVRECKWQFRNRRWNCPTAPGPHLFGKIVNRGCRETAFIFAITSAGVTHSVARSCSEGSIESCTCDYRRRGPGGPDWHWGGCSDNIDFGRLFGREFVDSGEKGRDLRFLMNLHNNEAGRTTVFSEMRQECKCHGMSGSCTVRTCWMRLPTLRAVGDVLRDRFDGASRVLYGNRGSNRASRAELLRLEPEDPAHKPPSPHDLVYFEKSPNFCTYSGRLGTAGTAGRACNSSSPALDGCELLCCGRGHRTRTQRVTERCNCTFHWCCHVSCRNCTHTRVLHECL
# Columns and labels:
# [1] = system: Wnt signaling; assay: Canonical Wnt signaling in HUVECs (immunoblotting, β-catenin immunofluorescence); assay type: cell-based, human
# Procedure: FIG. 12 is a panel with a schematic, pictures showing that Dand5 reduces canonical Wnt signaling in HUVECs. HUVECs were plated to confluence and received a 2 h scratch in the presence or absence of Dand5 ([…]) or IWR1 (3 μM). β-catenin (green) localization was examined by immunofluorescence with phalloidin and DAPI (nuclei) to identify the cell boundaries and nucleus. […] Scale bars, […]).
# Cells were washed with cold PBS and extracted in Laemmli's buffer, followed by sonication. Samples were run on SDS-PAGE gels and transferred onto nitrocellulose membranes. Membranes were blocked with 5% Bovine Serum Albumin (BSA) and probed with primary antibodies overnight at 4° C.: beta-Catenin (Cell Signaling Technology), phospho-beta-catenin (Cell Signaling Technology), Axin2 (Cell Signaling Technology), beta-Actin (Santa Cruz Technologies). HRP-conjugated secondary antibodies (Vector Laboratories) were used to detect primary antibodies.
# We next evaluated the molecular mechanisms underlying the effects of DAND5 on endothelial cells. […] Wnt signaling regulates fundamental aspects of vascular development, including cell fate specification, proliferation and survival. […] HUVECs were treated for up to 24 hours with DAND5 or IWR-1, an inhibitor of Wnt canonical signaling. Protein extracts were harvested and subjected to immunoblotting against downstream effectors of Wnt signaling. […] The levels of β-catenin at different subcellular localizations are regulated by a variety of processes including site-specific phosphorylation of β-catenin. In the absence of an active Wnt signaling, β-catenin localization at cellular junctions is reduced and cytoplasmic β-catenin associates with the destruction complex (6).
# [2] = system: HUVECs; assay: Free radicals / ROS in HUVECs (DCFDA, MitoSoxRed); assay type: cell-based, human; settings: HUVECs treated with DAND5 plus NAC
# Procedure: FIG. 8 is a panel with graphs and pictures showing that Dand5 induces mitochondrial oxidative stress and alters ATP levels in HUVECs. FIG. 8A: HUVEC cells were treated with Dand5 in the presence or not of N-acetylcysteine (NAC) for up to 48 hours. Cells were then incubated with H2DCFDA. Hydrogen peroxide treated cells (H2O2) were included as a positive control. Fluorescence was measured at Ex: 485 nm and Em: 535 nm in a plate reader. Relative Fluorescence Units (RFU) were generated by normalizing the reading of each well to Hoescht staining (n=3,*p<0.05 **p<0.001). FIG. 8B: HUVEC cells were treated with Dand5 in for up to 48 hours. Cells were incubated with MitoSox Red. 3-nitro-proprionic acid (3-NP) treated cells were also examined as a positive control. Fluorescence was measured at Ex: 544 nm and Em: 590 nm. Relative Fluorescence Units (RFU) were generated by normalizing the reading of each well to Hoescht staining (n=3,*p<0.05). FIG. 8C: Primary culture of choroidal sprouts were treated with Dand5 in the absence or presence of NAC. FIG. 8D: Quantification of sprouting area by Image J. FIG. 8E: The ratio of NAD+ to NADH in whole cell extracts was determined using an Alcohol Dehydrogenase/Malate Dehydrogenase enzymatic cycling assay. Cells treated to hypoxic conditions (4% O2 for 3 hours) were included as a positive control (n=3,*p<0.05, **p<0.01). Likewise, glucose uptake was reduced in Dand5-treated HUVECs after 1 hour, while lactate levels were increased (lower panel). FIG. 8F: ATP levels were reduced in HUVECs exposed to Dand5 at 1, 6 and 24 hours (n=3,*p=0.05).
# We exposed or not HUVECs to recombinant DAND5 and measured the concentration of free radicals using DCFDA and MitoSoxRed™. […] To further test this, we measure the NAD+/NADH ratio in cells treated or not with DAND5. […] Likewise, glucose uptake was reduced and lactate levels were increased in DAND5-treated HUVECs after 1 h (FIG. 8E, lower panel).
# [3] = system: mouse choroidal explants; assay: Choroidal explant sprouting in culture; assay type: cell-based; settings: mouse choroidal explants, DAND5 plus NAC
# Procedure: FIG. 1 is a panel with pictures, bar graphs, and graphs showing that Dand5 reduces VEGF-mediated sprouting angiogenesis in cultured endothelial cells. FIG. 1A: HUVECs grown in a fibrinogen gel were treated with VEGF to induce tube formation in the presence or absence of Dand5. […] FIG. 1B: HUVECs were plated to confluency and scratched to stimulate a wound in the presence or absence of Dand5. Scale bar, 100 μm. FIG. 1C: Quantification of tube formation in FIG. 1A n=3, *p<0.05, **p<0.01). FIG. 1E: Choroids were isolated from wild-type mice and cultured in vitro in the absence or presence of Dand5. […] FIG. 1F: Quantification of sprouting areas in choroidal sprouts (n=3, ***p<0.0001). […] FIG. 1H: HUVECs were cultured in the presence or absence of Dand5 and analyzed by immunofluorescence using antibodies against phospho-Histone 3 (PH3), a marker of cellular mitosis, and phalloidin and DAPI (nuclei). […] FIG. 1I: Quantification immunofluorescent staining of phospho-histone 3 positive cells. […] FIG. 1K: Quantification of immunofluorescent staining of cleaved caspase 3 (n=2, n.s.).
# To evaluate the cellular mechanisms underlying the inhibitory effects of DAND5 on endothelial cells sprouting, we assessed the effects of DAND5 on endothelial cell migration and proliferation. […]
# We exposed or not HUVECs to recombinant DAND5 and measured the concentration of free radicals using DCFDA and MitoSoxRed™. […]
# [4] = system: geographic atrophy (GA); settings: in vivo; cited from earlier work
# [5] = system: Wnt-induced angiogenesis; assay: Wnt1 and DAND5 co-injection during retinal vascular development (P1 to P5); assay type: in vivo, mouse
# Procedure: FIG. 13 is a panel with pictures and graphs showing that Dand5 opposes Wnt1-mediated hypervascularization during retinal vascular development. FIG. 13A: Schematic representation of experimental design. C57B6 pups were injected at P1 with PBS, Dand5 (60 ng/mL), Wnt1, or Wnt1 and Dand5 together at various molar ratios (1N, 5N and 10N). FIG. 13B: Representative images of retinas treated with PBS, Dand5 (1N) or Wnt1 (1N). FIG. 13C: Representative images of retinas treated with PBS or with Wnt1 (5N and 10N) alone or in combination with Danb5. Dand5 Flatmounts retinas were stained with Isolectin B4 to visualize the vasculature. FIG. 13D: Quantification of vascular branches in treated eyes. […] To address the antagonism of DAND5 on Wnt-induced angiogenesis, retinas were injected with recombinant DAND5 (60 ng) with increasing concentrations of Wnt1 (0, 1, 5 or 10× molar ratio) at P1 and retinas were harvested at P5 (FIG. 13A).
# [6] = HUVECs treated for up to 24 hours, immunoblotting
molecule,measurement,setting,value
"O=C(Nc1cccc2cccnc12)c1ccc(N2C(=O)[C@@H]3[C@H](C2=O)[C@@H]2C=C[C@H]3C2)cc1 [IWR-1, reference compound]",levels of Axin2,[1]; [6],increased levels of Axin2
same,levels of phosphorylated beta-catenin,[1]; [6],increased levels of phosphorylated beta-catenin
same,levels of total beta-catenin,[1]; [6],decreased levels of total beta-catenin
same,cytoplasmic β-catenin,"[1]; confluent HUVECs, 2 h scratch, Dand5 60n/mL or IWR1 3 μM",increased cytoplasmic β-catenin
"CC(=O)N[C@@H](CS)C(=O)O [NAC, N-acetyl cystein, reference compound]",reversal of DAND5-induced free radical elevation,[2],could be overcome by exposing cells to N-acetyl cystein (NAC)
same,growth of DAND5-treated choroidal explants when also treated with NAC,[3],partially rescued
bevacizumab: VEGF inhibitor,risk of geographic atrophy (GA) progression,[4],increased risks of geographic atrophy (GA) progression
ranibizumab: VEGF inhibitor,risk of geographic atrophy (GA) progression,[4],increased risks of geographic atrophy (GA) progression
B1,retinal vascular density,"[5]; Wnt1 injected at P1, retinas at P5, IsoB4 staining",retinal vascular density was increased
same,retinal vascularization at 16.6 and 33.3 pmoles,"[5]; Wnt1 injections of 16.6 and 33.3 pmoles, P1 to P5",significant hypervascularization
same,rescue of the inhibitory effects of DAND5 on retinal angiogenesis,[5]; concomitant injection of DAND5 (60 ng) with Wnt1 (10 molar ratio),partially rescued the inhibitory effects of DAND5 on retinal angiogenesis
same,mutual antagonism on vascular branches,[5]; quantification of vascular branches in treated eyes,mutually antagonist activities
